System: SARS-CoV-2
Test: Antiviral IC50 determination
Assay type: cell-based, SARS-CoV-2 (hCoV-19/Egypt/NRC-03/2020)
Conditions: not given

Compound | SI (selectivity index/therapeutical index): CC50/IC50
CCN(CCO)CCCC(C)Nc1ccnc2cc(Cl)ccc12 (centres unmarked) [HCQ, hydroxychloroquine, reference compound] | 10.85

Same assay, conditions: CC50 VERO-E6 / IC50 SARS-CoV-2

Compound | SI (selectivity index/therapeutical index): CC50/IC50
COc1ccc(-n2cc(Cn3c(C(F)(F)F)cc(=O)c4ccccc43)nn2)cc1 [Compound 11a, 1-((1-(4-Methoxyphenyl)-1H-1,2,3-triazol-4-yl)methyl)-2-(trifluoromethyl)quinolin-4(1H)-one] | 3.69
COc1ccc2nc(C(F)(F)F)cc(OCc3cn(-c4ccc(F)cc4)nn3)c2c1 [Compound 10k, 4-((1-(4-Fluorophenyl)-1H-1,2,3-triazol-4-yl)methoxy)-6-methoxy-2-(trifluoromethyl)quinoline] | 1.34
Cc1ccc(-n2cc(COc3cc(C(F)(F)F)nc4ccccc34)nn2)cc1 [Compound 10b, 4-((1-(p-Tolyl)-1H-1,2,3-triazol-4-yl)methoxy)-2-(trifluoromethyl)quinoline] | 0.49
COc1ccccc1-n1cc(Cn2c(C(F)(F)F)cc(=O)c3cc(C)ccc32)nn1 [Compound 11c, 1-((1-(2-Methoxyphenyl)-1H-1,2,3-triazol-4-yl)methyl)-6-methyl-2-(trifluoromethyl)quinolin-4(1H)-one] | 3.15
COc1ccc(-n2cc(COc3cc(C(F)(F)F)nc4ccccc34)nn2)cc1 [Compound 10c, 4-((1-(4-Methoxyphenyl)-1H-1,2,3-triazol-4-yl)methoxy)-2-(trifluoromethyl)quinoline] | 0.03
Fc1ccc(-n2cc(COc3cc(C(F)(F)F)nc4ccccc34)nn2)cc1 [Compound 10a, 4-((1-(4-Fluorophenyl)-1H-1,2,3-triazol-4-yl)methoxy)-2-(trifluoromethyl)quinoline] | 5.04
Cc1ccc2nc(C(F)(F)F)cc(OCc3cn(-c4ccccc4Cl)nn3)c2c1 [Compound 10i, 4-((1-(2-Chlorophenyl)-1H-1,2,3-triazol-4-yl)methoxy)-6-methyl-2-(trifluoromethyl)quinoline] | 4.51
FC(F)(F)c1cc(OCc2cn(-c3ccccc3Cl)nn2)c2ccccc2n1 [Compound 10d, 4-((1-(2-Chlorophenyl)-1H-1,2,3-triazol-4-yl)methoxy)-2-(trifluoromethyl)quinoline] | 2.85
COc1ccc2nc(C(F)(F)F)cc(OCc3cn(-c4ccc(C)cc4)nn3)c2c1 [Compound 10l, 6-Methoxy-4-((1-(p-tolyl)-1H-1,2,3-triazol-4-yl)methoxy)-2-(trifluoromethyl)quinoline] | 0.65
COc1ccccc1-n1cc(COc2cc(C(F)(F)F)nc3ccccc23)nn1 [Compound 10e, 4-((1-(2-Methoxyphenyl)-1H-1,2,3-triazol-4-yl)methoxy)-2-(trifluoromethyl)quinoline] | 0.03
COc1ccccc1-n1cc(COc2cc(C(F)(F)F)nc3ccc(F)cc23)nn1 [Compound 10h, 6-Fluoro-4-((1-(2-methoxyphenyl)-1H-1,2,3-triazol-4-yl)methoxy)-2-(trifluoromethyl)quinoline] | 0.76
Fc1ccc2nc(C(F)(F)F)cc(OCc3cn(-c4ccccc4Cl)nn3)c2c1 [Compound 10g, 4-((1-(2-Chlorophenyl)-1H-1,2,3-triazol-4-yl)methoxy)-6-fluoro-2-(trifluoromethyl)quinoline] | 26.42
Cc1ccc(-n2cc(COc3cc(C(F)(F)F)nc4ccc(F)cc34)nn2)cc1 [Compound 10f, 6-Fluoro-4-((1-(p-tolyl)-1H-1,2,3-triazol-4-yl)methoxy)-2-(trifluoromethyl)quinoline] | 1.71
